Results: ChEMBL document CHEMBL4346721, “Small molecule PROTACs in targeted therapy: An emerging strategy to induce protein degradation” (Eur J Med Chem, 2019)

Legend:
[1] = biological target: Protein cereblon/Tyrosine-protein kinase BTK (Homo sapiens, UniProt Q06187+Q96SW2); assay: Protac activity at E3 ubiquitin ligase/BTK in human NAMALWA cells assessed as BTK degradation; assay type: cell-based
[2] = biological target: Estrogen receptor/E3 ubiquitin-protein ligase XIAP (Homo sapiens) (UniProt P03372+P98170); assay: Protac activity against xiap/ERalpha in human MCF7 cells assessed as reduction in ERalpha protein level at 3 nM relative to control; assay type: cell-based; parameters: scale not given: the % may be the effect or the level left
[3] = biological target: Protein cereblon/Histone acetyltransferase KAT2A (Homo sapiens, UniProt Q92830+Q96SW2); assay: Protac activity against E3 ubiquitin ligase/GCN5 in human THP-1 cells assessed as induction of GCN5 protein degradation; assay type: cell-based
[4] = biological target: Protein cereblon/Histone acetyltransferase KAT2B (Homo sapiens, UniProt Q92831+Q96SW2); assay: Protac activity against E3 ubiquitin ligase/PCAF in human THP-1 cells assessed as induction of PCAF protein degradation; assay type: cell-based
[5] = biological target: Protein cereblon/Peptidyl-prolyl cis-trans isomerase FKBP1A (Homo sapiens, UniProt P62942+Q96SW2); assay: Protac activity against CRBN/FKBP12 (unknown origin) assessed as FKBP12 degradation by cell based assay
[6] = biological target: von Hippel-Lindau disease tumor suppressor/Myc proto-oncogene protein (Homo sapiens, UniProt P01106+P40337); assay: Protac activity against VHL/c-Myc (unknown origin) assessed as induction of c-Myc protein degradation by cell based reverse phase protein array analysis
von Hippel-Lindau disease tumor suppressor/Myc proto-oncogene protein, sequence (P01106 whole entry): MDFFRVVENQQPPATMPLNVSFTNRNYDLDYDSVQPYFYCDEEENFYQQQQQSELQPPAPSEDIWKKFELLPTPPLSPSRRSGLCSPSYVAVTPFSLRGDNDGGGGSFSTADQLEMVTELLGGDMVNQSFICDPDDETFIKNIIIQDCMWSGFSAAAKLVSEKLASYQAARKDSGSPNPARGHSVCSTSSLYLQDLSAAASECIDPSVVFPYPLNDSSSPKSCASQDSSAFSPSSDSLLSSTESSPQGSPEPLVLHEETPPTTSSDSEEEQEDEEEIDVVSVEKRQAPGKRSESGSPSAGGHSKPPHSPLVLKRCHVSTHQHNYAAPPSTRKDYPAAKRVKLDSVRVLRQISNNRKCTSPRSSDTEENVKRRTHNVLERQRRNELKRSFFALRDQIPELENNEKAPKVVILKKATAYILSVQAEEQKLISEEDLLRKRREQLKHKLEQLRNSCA
von Hippel-Lindau disease tumor suppressor/Myc proto-oncogene protein, sequence (P40337 whole entry): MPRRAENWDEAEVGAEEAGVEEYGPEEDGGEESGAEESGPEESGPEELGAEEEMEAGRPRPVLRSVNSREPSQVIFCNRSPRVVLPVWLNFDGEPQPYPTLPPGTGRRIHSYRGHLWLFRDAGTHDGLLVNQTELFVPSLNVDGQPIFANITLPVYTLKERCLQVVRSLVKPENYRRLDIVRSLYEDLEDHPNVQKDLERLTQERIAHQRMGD

[7] = biological target: T1, von Hippel-Lindau disease tumor suppressor/Bromodomain-containing protein 2 (Homo sapiens, UniProt P25440+P40337); assay: Protac activity against VHL/BRD2 in human 22Rvl cells assessed as induction of BRD2 protein degradation by reverse phase protein array analysis; assay type: cell-based
T1 sequence (P25440 whole entry): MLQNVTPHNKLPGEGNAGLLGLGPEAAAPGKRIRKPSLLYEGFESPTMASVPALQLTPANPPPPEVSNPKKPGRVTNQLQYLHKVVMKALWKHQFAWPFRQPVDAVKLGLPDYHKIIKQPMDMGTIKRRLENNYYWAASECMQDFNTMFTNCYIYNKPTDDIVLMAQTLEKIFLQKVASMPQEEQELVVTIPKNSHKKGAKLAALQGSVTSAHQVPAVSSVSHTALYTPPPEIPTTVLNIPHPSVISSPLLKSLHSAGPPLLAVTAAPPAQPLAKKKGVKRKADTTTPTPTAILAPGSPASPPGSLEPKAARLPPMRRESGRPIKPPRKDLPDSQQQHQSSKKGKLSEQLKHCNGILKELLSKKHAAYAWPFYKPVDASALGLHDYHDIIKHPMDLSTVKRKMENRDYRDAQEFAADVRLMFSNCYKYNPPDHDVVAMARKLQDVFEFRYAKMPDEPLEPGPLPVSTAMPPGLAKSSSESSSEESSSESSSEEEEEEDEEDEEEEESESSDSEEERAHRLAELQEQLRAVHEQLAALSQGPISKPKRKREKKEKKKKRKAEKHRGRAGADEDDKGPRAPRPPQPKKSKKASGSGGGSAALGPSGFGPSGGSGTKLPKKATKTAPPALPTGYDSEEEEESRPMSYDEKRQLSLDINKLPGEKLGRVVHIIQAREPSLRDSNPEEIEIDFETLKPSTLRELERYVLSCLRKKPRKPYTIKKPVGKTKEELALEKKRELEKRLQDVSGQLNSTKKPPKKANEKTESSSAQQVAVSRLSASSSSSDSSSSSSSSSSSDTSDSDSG
T1 sequence (P40337 whole entry): as the sequence (P40337 whole entry) above

[8] = biological target: Protein cereblon/Cyclin-dependent kinase 9 (Homo sapiens, UniProt P50750+Q96SW2); assay: Protac activity against E3 ubiquitin ligase/CDK9 in human MCF7 cells assessed as induction of CDK9 protein degradation; assay type: cell-based
[9] = biological target: T2, von Hippel-Lindau disease tumor suppressor/Receptor-interacting serine/threonine-protein kinase 2 (Homo sapiens, UniProt O43353+P40337); assay: Protac activity against VHL/RIPK2 in human THP-1 cells assessed as induction of RIPK2 protein degradation; assay type: cell-based
Target sequence in this assay (O43353 whole entry): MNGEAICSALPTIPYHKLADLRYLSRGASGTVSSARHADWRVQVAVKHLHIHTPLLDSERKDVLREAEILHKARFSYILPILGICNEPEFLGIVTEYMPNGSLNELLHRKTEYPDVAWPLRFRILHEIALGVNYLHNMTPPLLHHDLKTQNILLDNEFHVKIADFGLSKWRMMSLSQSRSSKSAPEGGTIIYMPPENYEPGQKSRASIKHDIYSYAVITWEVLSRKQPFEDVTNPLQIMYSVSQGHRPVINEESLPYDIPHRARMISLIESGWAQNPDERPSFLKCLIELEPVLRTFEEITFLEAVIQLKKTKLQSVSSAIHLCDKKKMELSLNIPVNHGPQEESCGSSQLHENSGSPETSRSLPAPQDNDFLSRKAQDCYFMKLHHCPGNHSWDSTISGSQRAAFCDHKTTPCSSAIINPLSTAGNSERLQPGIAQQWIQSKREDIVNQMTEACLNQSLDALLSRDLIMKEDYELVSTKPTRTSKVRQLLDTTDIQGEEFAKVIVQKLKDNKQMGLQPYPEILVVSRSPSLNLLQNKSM
Target sequence in this assay (P40337 whole entry): as the sequence (P40337 whole entry) above

[10] = biological target: von Hippel-Lindau disease tumor suppressor (Homo sapiens, UniProt P40337); assay: Binding affinity to VHL in human THP-1 cells; assay type: cell-based
[11] = biological target: T2, von Hippel-Lindau disease tumor suppressor/Receptor-interacting serine/threonine-protein kinase 2; assay: Protac activity against VHL/RIPK2 in human THP-1 cells assessed as induction of RIPK2 protein degradation at 10 nM relative to control; assay type: cell-based
Target sequence in this assay (O43353 whole entry, looked up): as the sequence (O43353 whole entry) above
Target sequence in this assay (P40337 whole entry, looked up): as the sequence (P40337 whole entry) above

[12] = biological target: von Hippel-Lindau disease tumor suppressor/Bromodomain-containing protein 3 (Homo sapiens, UniProt Q15059+P40337); assay: Protac activity against VHL/BRD3 (unknown origin) assessed as […] protein degradation by cell based assay
von Hippel-Lindau disease tumor suppressor/Bromodomain-containing protein 3, sequence (Q15059 whole entry): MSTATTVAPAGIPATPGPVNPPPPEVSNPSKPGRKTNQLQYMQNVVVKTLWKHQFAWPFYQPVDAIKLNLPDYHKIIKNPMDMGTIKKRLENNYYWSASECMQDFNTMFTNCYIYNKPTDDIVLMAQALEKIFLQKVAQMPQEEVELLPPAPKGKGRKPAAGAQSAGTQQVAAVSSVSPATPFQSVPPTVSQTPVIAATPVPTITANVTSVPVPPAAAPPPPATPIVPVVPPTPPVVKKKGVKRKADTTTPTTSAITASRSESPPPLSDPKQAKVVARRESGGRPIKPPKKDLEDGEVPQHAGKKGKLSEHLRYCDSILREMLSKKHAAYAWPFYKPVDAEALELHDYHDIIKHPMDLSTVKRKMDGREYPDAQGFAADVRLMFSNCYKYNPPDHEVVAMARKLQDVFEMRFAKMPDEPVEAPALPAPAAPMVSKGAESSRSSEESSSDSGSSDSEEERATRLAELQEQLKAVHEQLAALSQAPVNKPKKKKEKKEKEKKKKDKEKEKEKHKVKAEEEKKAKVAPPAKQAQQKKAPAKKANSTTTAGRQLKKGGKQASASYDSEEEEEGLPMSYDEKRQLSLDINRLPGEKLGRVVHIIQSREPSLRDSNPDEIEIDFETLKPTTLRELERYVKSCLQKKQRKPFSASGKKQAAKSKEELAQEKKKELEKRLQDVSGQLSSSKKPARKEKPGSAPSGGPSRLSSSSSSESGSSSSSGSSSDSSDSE
von Hippel-Lindau disease tumor suppressor/Bromodomain-containing protein 3, sequence (P40337 whole entry): as the sequence (P40337 whole entry) above

[13] = biological target: T1, von Hippel-Lindau disease tumor suppressor/Bromodomain-containing protein 2; assay: Protac activity against VHL/BRD2 (unknown origin) assessed as […] protein degradation by cell based assay
[14] = biological target: von Hippel-Lindau disease tumor suppressor/Bromodomain-containing protein 4 (Homo sapiens, UniProt O60885+P40337); assay: Protac activity against VHL/BRD4 (unknown origin) assessed as induction of BRD4 protein degradation by cell based assay
von Hippel-Lindau disease tumor suppressor/Bromodomain-containing protein 4, sequence (P40337 whole entry, looked up, other chains not shown): as the sequence (P40337 whole entry) above

[15] = biological target: T3, von Hippel-Lindau disease tumor suppressor/Androgen receptor (Homo sapiens, UniProt P10275+P40337); assay: Protac activity against VHL/androgen receptor in human VCaP cells assessed as induction of androgen receptor protein degradation by Western blot analysis; assay type: cell-based
[16] = biological target: T3, von Hippel-Lindau disease tumor suppressor/Androgen receptor; assay: Protac activity against VHL/androgen receptor in human VCaP cells assessed as induction of androgen receptor protein degradation by Western blot analysis relative to control; assay type: cell-based
[17] = biological target: T4, von Hippel-Lindau disease tumor suppressor/Mitogen-activated protein kinase 14 (Homo sapiens, UniProt Q16539+P40337); assay: Protac activity at E3 ubiquitin ligase/p38alpha (unknown origin) assessed as p38alpha degradation by cell based assay relative to control
[18] = biological target: T4, von Hippel-Lindau disease tumor suppressor/Mitogen-activated protein kinase 14; assay: Protac activity at E3 ubiquitin ligase/p38alpha (unknown origin) assessed as p38alpha degradation by cell based assay
[19] = biological target: T5, von Hippel-Lindau disease tumor suppressor/Mitogen-activated protein kinase 13 (Homo sapiens, UniProt O15264+P40337); assay: Protac activity at E3 ubiquitin ligase/p38delta (unknown origin) assessed as p38delta degradation by cell based assay relative to control
Target sequence in this assay (O15264 whole entry, looked up): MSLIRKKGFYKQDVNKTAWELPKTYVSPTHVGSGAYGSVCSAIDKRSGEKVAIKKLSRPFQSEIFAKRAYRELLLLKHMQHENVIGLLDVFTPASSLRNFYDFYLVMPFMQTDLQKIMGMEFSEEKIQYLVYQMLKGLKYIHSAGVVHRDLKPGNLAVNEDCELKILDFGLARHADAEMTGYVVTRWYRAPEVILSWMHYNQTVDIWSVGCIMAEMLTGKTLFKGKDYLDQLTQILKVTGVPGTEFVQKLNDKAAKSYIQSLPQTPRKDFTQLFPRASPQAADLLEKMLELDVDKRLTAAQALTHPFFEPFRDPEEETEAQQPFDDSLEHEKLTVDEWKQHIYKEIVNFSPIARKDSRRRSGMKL
Target sequence in this assay (P40337 whole entry, looked up): as the sequence (P40337 whole entry) above

[20] = biological target: T5, von Hippel-Lindau disease tumor suppressor/Mitogen-activated protein kinase 13; assay: Protac activity at E3 ubiquitin ligase/p38delta (unknown origin) assessed as p38delta degradation by cell based assay

## Nc1ncnc2c1c(-c1ccc(Oc3ccccc3)cc1)nn2C1CCN(CCOCCOCC(=O)Nc2ccc3c(c2)C(=O)N(C2CCC(=O)NC2=O)C3=O)CC1 (stereo not given)
[1]
  DC50: 9.1 nM

## CC/C(=C(\c1ccc(O)cc1)c1ccc(OCCN(C)C(=O)COCCOCCOCCOc2cccc(C(=O)c3csc([C@@H]4CCCN4C(=O)[C@@H](NC(=O)[C@H](C)NC)C4CCCCC4)n3)c2)cc1)c1ccccc1
[2]
  Activity: 50%

## CN1C[C@H](Nc2cnn(C)c(=O)c2Br)C[C@H](c2ccc(C(=O)N(C)CCCN(C)c3ccc(CCCOc4cccc5c4C(=O)N(C4CCC(=O)NC4=O)C5=O)cc3)cc2)C1 (mixture of isomers)
[3]
  DC50: 3 nM
[4]
  DC50: 1.5 nM

## CCC(C)(C)C(=O)C(=O)N1CCCCC1C(=O)O[C@H](CCc1ccc(OC)c(OC)c1)c1cccc(NC(=O)CCC(=O)NCCCCNC(=O)COc2cccc3c2C(=O)N(C2CCC(=O)NC2=O)C3=O)c1 (stereo not given in full)
[5]
  DC50: 10 nM

## Cc1ncsc1-c1ccc([C@H](C)NC(=O)[C@@H]2C[C@@H](O)CN2C(=O)[C@@H](NC(=O)COCCCOCCNC(=O)C[C@@H]2N=C(c3ccc(Cl)cc3)c3c(sc(C)c3C)-n3c(C)nnc32)C(C)(C)C)cc1
[6]
  DC50: < 1 nM
[7]
  DC50: < 5 nM

## O=C1CCC(N2C(=O)c3cccc(NC(=O)CCCCCCCn4cc(COc5c(O)cc(O)c6c(=O)cc(-c7ccccc7)oc56)nn4)c3C2=O)C(=O)N1 (stereo not given)
[8]
  IC50: 523 nM

## Cc1ncsc1-c1ccc(CNC(=O)[C@@H]2C[C@@H](O)CN2C(=O)[C@@H](NC(=O)COCCOCCOCCOCCOc2cc3nccc(Nc4ccc5scnc5c4)c3cc2S(=O)(=O)C(C)(C)C)C(C)(C)C)cc1
[9]
  DC50: 1.4 nM
[10]
  IC50: 656 nM
[11]
  Emax: > 95%

## Cc1ncsc1-c1ccc(CNC(=O)[C@@H]2[C@@H](F)[C@@H](O)CN2C(=O)[C@@H](NC(=O)COCCOCCOCCNC(=O)C[C@@H]2N=C(c3ccc(Cl)cc3)c3c(sc(C)c3C)-n3c(C)nnc32)C(C)(C)C)cc1
[12]
  DC50: 10 nM
[13]
  DC50: 10 nM
[14]
  DC50: < 3 nM

## Cc1ncsc1-c1ccc(CNC(=O)[C@@H]2C[C@@H](O)CN2C(=O)[C@@H](NC(=O)COCCCCOc2ccc(-c3ccc(N4C(=S)N(c5ccc(C#N)c(C(F)(F)F)c5)C(=O)C4(C)C)cc3)cc2)C(C)(C)C)cc1
[15]
  DC50: 5 nM
[16]
  Emax: > 95%

## COc1cc2c(Oc3ccc(NC(=O)C4(C(=O)Nc5ccc(F)cc5)CC4)cc3F)ccnc2cc1OCCCCOCCCCOCC(=O)N[C@H](C(=O)N1C[C@H](O)C[C@H]1C(=O)NCc1ccc(-c2scnc2C)cc1)C(C)(C)C
[17]
  Emax: 97.4%
[18]
  DC50: 7.16 nM

## COc1cc2c(Oc3ccc(NC(=O)C4(C(=O)Nc5ccc(F)cc5)CC4)cc3F)ccnc2cc1OCCOCCOCCOc1cc(-c2scnc2C)ccc1CNC(=O)[C@@H]1C[C@@H](O)CN1C(=O)[C@H](C(C)C)N1Cc2ccccc2C1=O
[19]
  Emax: 99.4%
[20]
  DC50: 46.2 nM
